Data: publication PMC11613490, “Cyclophostin and Cyclipostins analogues counteract macrolide-induced resistance mediated by erm(41) in Mycobacterium abscessus” (Journal of Biomedical Science, 2024)
Values after ≈ are worked out from the molar mass of the structure shown. Where two headings read alike, the source gives them in different places.

Assays:
Experiment in all cases: microbe, parasite or virus in culture
[1] = system: M. abscessus S (control, untreated); set-up: species or system Mycobacterium abscessus S; broth microdilution / checkerboard MIC in 7H9-S OADC, OD600, more than 90% growth inhibition; conditions: Mycobacteroides abscessus, read-out: MIC, single drug
[2] = system: M. abscessus S reference strain (Control, untreated); set-up: species or system Mycobacterium abscessus; broth microdilution in 7H9-OADC, OD600 growth, MIC defined as 90% growth inhibition; conditions: Mycobacteroides abscessus, single drug, read-out: MIC (0 µg/mL CyC, alone)
[3] = system: M. abscessus S reference strain (Control, untreated); conditions: Mycobacteroides abscessus, read-out: MIC (0 µg/mL CyC, alone)
Description: Synergistic activities were tested in 96-well microplates by the checkerboard assay in Middlebrook 7H9-S^OADC broth and using microdilution method [47]. MIC of the antibiotics were determined in 96 well flat-bottom Nunclon Delta Surface microplates with lid (Thermo-Fisher Scientific, ref. 167008) using optical density to assess growth. Log-phase bacteria were diluted to a cell density of 5 × 10^6 cells/mL in 7H9-S^OADC medium. Then, 100 µL of this bacterial suspension (5 × 10^5 cells final per well) was added to each well containing 100 µL of the 7H9-S^OADC medium, serial two-fold dilutions of the selected antibiotics or controls to a final volume of 200 µL. In addition, wells containing 200 µL of 7H9-S^OADC medium only were used as sterility/background controls, whereas wells containing 100 µg/mL kanamycin (Euromedex) was used as positive control for growth inhibition. Plates were incubated at 37 °C for 4 to 5 days. The optical density (OD) at 600 nm was quantified using a Tecan Spark 10 M™ multimode microplate reader (Tecan Group Ltd., France). Relative growth units were defined as: RGU% = (test well OD600nm/mean OD600nm of growth control wells) ×100. For each condition, three biological replicates were performed. The MIC of each drug was defined as the lowest drug concentration that inhibited more than 90% of the bacterial growth.

Compound	MIC [1] [µg/mL]	other results
CC[C@H]1OC(=O)[C@H](C)[C@@H](O[C@H]2C[C@@](C)(OC)[C@@H](O)[C@H](C)O2)[C@H](C)[C@@H](O[C@@H]2O[C@H](C)C[C@H](N(C)C)[C@H]2O)[C@](C)(OC)C[C@@H](C)C(=O)[C@H](C)[C@@H](O)[C@]1(C)O [CLR, clarithromycin]	0.6	–
CCCCCCCCCCCOP1(=O)OCCC(C(=O)OC)=C(C)O1 (stereo not shown) [CyC31]	–	MIC [2]: 20 µg/mL (≈ 53.1 µM)
CC[C@H]1OC(=O)[C@H](C)[C@@H](O[C@H]2C[C@@](C)(OC)[C@@H](O)[C@H](C)O2)[C@H](C)[C@@H](O[C@@H]2O[C@H](C)C[C@H](N(C)C)[C@H]2O)[C@](C)(O)C[C@@H](C)CN(C)[C@H](C)[C@@H](O)[C@]1(C)O [AZM, azithromycin]	6	–
CCCCCCCCCCCCCCCCOP1(=O)OCCC(C(=O)OC)=C(C)O1 (stereo not shown) [CyC17]	–	MIC [3]: 3.2 µg/mL (≈ 7.17 µM)
